Patent publication US4444771A, “Azeto triazolo pyrazine β-lactam antibacterial agents” (Beecham Group Limited, priority 1980, dated 1984)
Where a name gives a salt, the structure may show the parent alone.

Legend:
Type in all cases: cell-based
S. aureus Oxford = assay: Antibacterial activity, minimum inhibitory concentration, S. aureus Oxford; conditions: Staphylococcus aureus, serial dilution, DST agar + 10% horse blood, 10^-2 dilution inoculum, 37°, 18 h
Description: (§1) Minimum Inhibitory Concentration μg/ml^a
(§2) ^a Determined by serial dilution on DST agar containing 10% horse
(§3) blood using an inoculum of 0.001 ml of a 10^-2 dilution for
(§4) Grampositive bacteria or a 10^-4 dilution for Gramnegative organisms.
(§5) MIC values were read after incubation at 37° for eighteen hours.

S. pneumoniae = assay: Antibacterial activity, minimum inhibitory concentration, S. pneumoniae; conditions: Streptococcus pneumoniae, serial dilution, DST agar + 10% horse blood, 10^-2 dilution inoculum, 37°, 18 h
Description: as §1, §2, §3, §4, §5

S. faecalis = assay: Antibacterial activity, minimum inhibitory concentration, S. faecalis; conditions: Enterococcus faecalis, serial dilution, DST agar + 10% horse blood, 10^-2 dilution inoculum, 37°, 18 h
Description: as §1, §2, §3, §4, §5

S. pyogenes = assay: Antibacterial activity, minimum inhibitory concentration, S. pyogenes; conditions: Streptococcus pyogenes, serial dilution, DST agar + 10% horse blood, 10^-2 dilution inoculum, 37°, 18 h
Description: as §1, §2, §3, §4, §5

B. subtilis = assay: Antibacterial activity, minimum inhibitory concentration, B. subtilis; conditions: Bacillus subtilis, serial dilution, DST agar + 10% horse blood, 10^-2 dilution inoculum, 37°, 18 h
Description: as §1, §2, §3, §4, §5

P. mirabilis = assay: Antibacterial activity, minimum inhibitory concentration, P. mirabilis; conditions: Proteus mirabilis, serial dilution, DST agar + 10% horse blood, 10^-4 dilution inoculum, 37°, 18 h
Description: as §1, §2, §3, §4, §5

K. aerogenes = assay: Antibacterial activity, minimum inhibitory concentration, K. aerogenes; conditions: Klebsiella aerogenes, serial dilution, DST agar + 10% horse blood, 10^-4 dilution inoculum, 37°, 18 h
Description: as §1, §2, §3, §4, §5

S. typhimurium = assay: Antibacterial activity, minimum inhibitory concentration, S. typhimurium; conditions: Salmonella enterica, serial dilution, DST agar + 10% horse blood, 10^-4 dilution inoculum, 37°, 18 h
Description: as §1, §2, §3, §4, §5

E. coli = assay: Antibacterial activity, minimum inhibitory concentration, E. coli; conditions: Escherichia coli, serial dilution, DST agar + 10% horse blood, 10^-4 dilution inoculum, 37°, 18 h
Description: as §1, §2, §3, §4, §5

S. aureus Russell = assay: Antibacterial activity, minimum inhibitory concentration, S. aureus Russell; conditions: Staphylococcus aureus; S. aureus Russell (lactamase-producing benzylpenicillin-resistant strain); serial dilution, DST agar + 10% horse blood, 10^-2 dilution inoculum, 37°, 18 h
Description: as §1, §2, §3, §4, §5
^b lactamase-producing benzylpenicillinresistant strain.

| Compound | MIC (S. aureus Oxford) [mg/L] | MIC (S. pneumoniae) [mg/L] | MIC (S. faecalis) [mg/L] | MIC (S. pyogenes) [mg/L] | MIC (B. subtilis) [mg/L] | MIC (P. mirabilis) [mg/L] | MIC (K. aerogenes) [mg/L] | MIC (S. typhimurium) [mg/L] | MIC (E. coli) [mg/L] | MIC (S. aureus Russell) [mg/L] |
| --- | --- | --- | --- | --- | --- | --- | --- | --- | --- | --- |
| CC1=C(C(=O)O)N2C(=O)[C@H](NC(=O)COc3ccccc3)[C@@H]2c2cnnn21 (relative stereo) [Compound 15, (4bRS,5RS) 5,6-Dihydro-9-methyl-6-oxo-5-phenoxyacetamido-4bH-azeto-[2,1-c]v-triazolo-[1,5-a]-pyrazine-8-carboxylic acid] | 25 | 2.5 | > 100 | 5 | 5 | > 100 | > 100 | > 100 | > 100 | 100 |
| CC1=C(C(=O)O)N2C(=O)[C@H](NC(=O)C(C(=O)Oc3ccccc3)c3ccccc3)[C@@H]2c2cnnn21 (relative stereo) [Compound 22, (4bRS,5RS) 5,6-Dihydro-9-methyl-6-oxo-5-[DL-α-phenoxycarbonylphenylacetamido]-4bH-azeto[2.1-c]-v-triazolo[1.5-a]-pyrazine-8-carboxylic acid] | > 100 |  | > 100 |  | 100 | 100 | > 100 | 50 | 100 | > 100 |
| CC(=O)N[C@H]1C(=O)N2C(C(=O)O)=C(C)n3nncc3[C@@H]12 (relative stereo) [Compound 35, (4bRS,5RS) 5-Acetamido-5,6-dihydro-9-methyl-6-oxo-4bH-azeto-[2,1-c]-v-triazolo-pyrazine-8-carboxylic acid] | 100 | 5 | > 100 | 2.5 | 5 | > 100 | > 100 | 100 | > 100 | > 100 |
| CC1=C(C(=O)O)N2C(=O)[C@H](NC(=O)Cc3cccs3)[C@@H]2c2cnnn21 (relative stereo) [Compound 55, (4bRS,5RS) 5,6-Dihydro-9-methyl-6-oxo-5-(2-thienylacetamido)-4bH-azeto-[2,1-c]-v-triazolo-[1,5-a]-pyrazine-8-carboxylic acid, p-toluidine salt)] | 10 | 2.5 | 25 | 0.2 | 0.5 | 10 | 100 |  |  | 100 |
| CC1=C(C(=O)O)N2C(=O)C(NC(=O)[C@H](N)c3ccccc3)C2c2cnnn21 (stereo partly drawn) [Compound 28, (4bRS,5RS)-5,6-Dihydro-9-methyl-6-oxo-5-D-α-phenylglycylamino-4bH-azeto-[2,1-c]-v-triazolo[1,5-a]pyrazine-8-carboxylic acid, p-toluidine salt] | 100 | 10 | > 100 | 2.5 | 10 | > 100 | > 100 | > 100 | > 100 | > 100 |
| CC1=C(C(=O)O)N2C(=O)[C@H](NC(=O)[C@H](O)c3ccccc3)[C@@H]2c2cnnn21 [Compound 39, (4bR,5R) 5,6-Dihydro-5-D-α-hydroxyphenylacetamido-9-methyl-6-oxo-4bH-azeto-[2,1-c]-v-triazolo-[1,5-a]-pyrazine-8-carboxylic acid] | > 100 | > 100 | > 100 | > 100 | 100 | > 100 | > 100 | > 100 | > 100 | > 100 |
| CC1=C(C(=O)O)N2C(=O)[C@@H](NC(=O)[C@H](O)c3ccccc3)[C@H]2c2cnnn21 [Compound 40, (4bS,5S)-5,6-Dihydro-5-D-α-hydroxyphenylacetamido-9-methyl-6-oxo-4bH-azeto-[2,1-c]-v-triazolo-[1,5-a]-pyrazine-8-carboxylic acid] | 25 | ≤ 0.2 | 100 | 50 | 0.5 | 10 | 100 | 25 | > 100 | 100 |
| CC1=C(C(=O)O)N2C(=O)[C@@H](NC(=O)COc3ccccc3)[C@H]2c2cnnn21 [Compound 42, (4bS,5S)-5,6-Dihydro-9-methyl-6-oxo-5-phenoxyacetamido-4bH-azeto-[2,1-c]-v-triazolo-[1,5-a]-pyrazine-8-carboxylic acid] |  | 5 | 50 | 2.5 | 0.5 | > 50 | > 50 | > 50 | > 50 | > 50 |
